Assay results published in patent US5439892A, “Dextrin sulfates as anti HIV-1 agents and composition thereof” (ML Laboratories, priority 1990, dated 1995).
Like-named read-outs stand apart in the source and are kept apart here.

Assays:
[1] = test system: HIV-1 (RF); type: cell-based
Text: (§1) HIV-1 (RF) was titrated in 10-fold dilutions onto C8166 cells in the presence of varying concentrations of drug. […] The figures in the table represent the logarithm to the base 10 of the figure actually determined. For instance, a figure of -6 in the table represents a determined result of 10^-6.

[2] = test system: HIV-1 (RF); test: microbe, parasite or virus in culture; type: cell-based; conditions: for decrease in infectivity titre: RF
Description: The human T-leukamic cell line C8166 was grown in RPMI 1640 with 10% FCS.
Various strains of HIV-1 (RF. IIIB, CBL-4, Z84 and Z129) were produced in chronically infected H9 cells. A five-fold excess of uninfected H9 cells was added to the culture five days prior to harvesting the supernatant which is clarified by centrifugation and stored in liquid nitrogen.
Induction of cytopathic effects on CD4^+ C8166 by HIV was assayed by multi-nucleated giant cell formation (syncytia).
as §1

[3] = test system: HIV-1 CBL-4; test: decrease in infectivity titre in C8166 cells, HIV-1 CBL-4; type: cell-based; conditions: for decrease in infectivity titre: CBL-4, C8166 cells
[4] = toxicity: cell viability by [3H]-thymidine uptake in PHA-stimulated human PBL; type: cell-based; conditions: human, pha-stimulated pbl, 3 days, mean of quadruplicate, read-out: Thymidine uptake (% of control with no drug)
Description: (§2) Normal human peripheral blood lymphocytes (PBL) were fractionated on Ficoll-Hypaque (Pharmacia Chemicals, Uppsala, Sweden) from venous blood collected in preservative-free heparin. They were mitogenetically stimulated with phytohaemaglutinin (PHA) (1 ug/ml) for 3 days and maintained in the medium RPMI 1640 supplemented by 20% foetal calf serum (FCS)+interleukin-2 (IL2) ([…]).
(§3) The relative toxicities of the materials tested in example 4 were evaluated by reference to cell viability in the presence of the drugs as measured by the relative uptake of [^3 H]- thymidine. Human PBL (10^6 cells/well) in 96 microtitre plates was stimulated with PHA in the presence of increasing concentration of drug for 3 days. Following a 5 hour probe with [^3 H]- thymidine (0.5 uCi/well), the cells were harvested and counted. The results shown represent the mean of quadruplicate experiments and are presented as the percentage incorporation of [^3 H]-thymidine in the presence of drug, compared to control experiments without drug.

[5] = test system: Human PBL; test: as above; type: cell-based; conditions: around 200 ug/ml
Description: as §2, §3

[6] = test system: HIV-1 IIIB; test: decrease in infectivity titre in C8166 cells, HIV-1 IIIB; type: cell-based; conditions: for decrease in infectivity titre: IIIB, C8166 cells
[7] = test system: RF; test: minimum concentration inhibiting syncytia formation in M8166 JH11 cells, RF; type: cell-based, HIV-1; conditions: for inhibitory concentration (minimum concentration at which syncytia formation was <10% that of controls): RF, 10^3 TCID, M8166 JH11 cells
Description: (§4) 50 ul samples of dextran sulphate and of the 2-, 3- and 6-sulphate derivatives of dextrin of Examples 3, 1 and 2 respectively were pre-incubated at 37° C. onto duplicate cultures of 4×10^5M8166 JH11 cells per ml (50 ul) at final concentrations of […] for one hour.

[8] = test system: IIIb; test: minimum concentration inhibiting syncytia formation in M8166 JH11 cells, IIIb; type: cell-based, HIV-1; conditions: 10^3 TCID
Description: as §4

[9] = test system: RUT; test: minimum concentration inhibiting syncytia formation in M8166 JH11 cells, RUT; type: cell-based, HIV-1; conditions: 10^2 TCID
Description: as §4

[10] = test system: HIV-1; test: inhibition of syncytia formation, overall over IIIb, RF, RUT, CBL20; type: cell-based; conditions: compared with dextran sulphate (MW 8,000) and dextrin 3-sulphate
Description: as §4

[11] = test system: HIV-1; test: activity against HIV-1 virus (general statement); conditions: comparison among dextrin sulphates
[12] = test system: Bovine Thrombin; test: anti-coagulant activity: clot formation time of pooled normal plasma after bovine thrombin; type: biochemical; conditions: comparison among dextrin sulphates
Description: The materials to be tested were each dissolved in veronal buffer to a concentration of 1 mg/ml=1000 ug/ml and a further dilution of 100 ug/ml was made by a 1:10 dilution in veronal buffer. Pooled normal plasma (1 ml) was then placed into each of nine plastic tubes. The solutions containing the materials to be tested were then added to the plasma to achieve a range of final concentrations from 1-300 ug/ml, in each case the volume being made up to 1.5 ml with veronal buffer. The resultant mixtures were incubated at 37° C. for 30 minutes, following which two 0.2 ml aliquots were extracted from each sample into glass tubes (Samples A and B), and 0.1 ml 7 U Bovine Thrombin was added and clot formation timed.

[13] = test system: CBL20; test: minimum concentration inhibiting syncytia formation in M8166 JH11 cells, CBL20; type: cell-based, HIV-1; conditions: 10^3 TCID
Description: as §4

[14] = 0.1 ug/ml, HIV-1 (RF), C8166 cells
[15] = 1.0 ug/ml, HIV-1 (RF), C8166 cells
[16] = 10 ug/ml, HIV-1 (RF), C8166 cells
[17] = 100 ug/ml, HIV-1 (RF), C8166 cells
[18] = Human immunodeficiency virus 1, C8166, read-out: decrease in infectivity titre
[19] = Human immunodeficiency virus 1, IIIB, C8166, read-out: decrease in infectivity titre

Molecule	Inhibition of HIV-1 (RF), live cell (C8166) reduction of MTT, estimated visually ([1]; 10 ug/ml)	Final dilution of the virus at which syncytia are produced (logarithm to the base 10) [2, 14]	Final dilution of the virus at which syncytia are produced (logarithm to the base 10) [2, 15]	Final dilution of the virus at which syncytia are produced (logarithm to the base 10) [2, 16]	Inhibition of HIV-1 (RF), live cell (C8166) reduction of MTT, estimated visually ([1]; 1.0 ug/ml)	Final dilution of the virus at which syncytia are produced (logarithm to the base 10) [2, 17]	inhibitory concentration (minimum concentration at which syncytia formation was <10% that of controls) [7] [µg/µL]	inhibitory concentration (minimum concentration at which syncytia formation was <10% that of controls) [8] [µg/µL]	inhibitory concentration (minimum concentration at which syncytia formation was <10% that of controls) [9] [µg/µL]	overall effectiveness [10]	anti-HIV activity in words [11]	anti-coagulant activity in words [12]	inhibitory concentration (minimum concentration at which syncytia formation was <10% that of controls) [13] [µg/µL]	other results
Dextran	-	-6	-6	-6										effect against HIV replication ([2]; HIV-1 (RF), C8166 cells): ineffective against HIV replication
Cc1cn([C@H]2C[C@H](N=[N+]=[N-])[C@@H](CO)O2)c(=O)[nH]c1=O [AZT, zidovidine]	-	-4	-3.5	-3	-	-3								Inhibition of HIV-1 (RF), live cell (C8166) reduction of MTT, estimated visually ([1]; 0.1 ug/ml): -; log reduction at 10 µg/mL [2, 18]: 3; log reduction at 50 µg/mL [2, 18]: 3; log reduction at 1 µg/mL ([2]; Human immunodeficiency virus 1, C8166, read-out: inhibition (reduction of the infectious titre)): 2.5; log reduction at 10 µg/mL ([2]; Human immunodeficiency virus 1, C8166, read-out: reduction of the infectious titre): 3; log reduction at 10 µg/mL [3, 18]: 4; log reduction at 50 µg/mL [3, 18]: 4; viability at 72 h ([4]; 5 ug/ml): 20%; viability at 72 h ([4]; 10 ug/ml): 15%; viability at 72 h ([4]; 25 ug/ml): 5%; viability at 72 h ([4]; 50 ug/ml): 2%; viability at 72 h ([4]; 71 ug/ml): 1%; viability at 72 h ([4]; 100 ug/ml): 1%; viability at 72 h ([4]; 200 ug/ml): 0%; toxicity in words [5]: very highly toxic; log reduction at 10 µg/mL [6, 19]: 4; log reduction at 50 µg/mL [6, 19]: 4
dextrin 2-sulphate	-		-4	-2	-	-2	5	5	5	overall greater effectiveness	about the same activity against the HIV-1 virus as the dextrin 6sulphate	least anti-coagulant	50	inhibition (reduction of the infectious titre) ([2]; 1 ug/ml, HIV-1 (RF), C8166 cells): 2 logs; reduction of the infectious titre [2, 16]: 3 logs; decrease in infectivity titre ([2]; 10 ug/ml, C8166 cells): 5 log units; decrease in infectivity titre ([2]; 50 ug/ml, C8166 cells): 6 log units; inhibition of syncytial induction on C8166 cells ([2]; compared with AZT and dextran sulphate): inhibits syncytial induction on C8166 cells with greater effect than either AZT or dextran sulphate; decrease in infectivity titre ([3]; 10 ug/ml): 0 log units; decrease in infectivity titre ([3]; 50 ug/ml): 4 log units; decrease in infectivity titre ([6]; 10 ug/ml): 3 log units; decrease in infectivity titre ([6]; 50 ug/ml): 5 log units
dextrin 6-sulphate							5	5	50	overall greater effectiveness		greater anti-coagulant activity	> 50	
dextrin 3-sulphate							5	50	50		relatively poor anti-HIV activity, by comparison with dextrin 2- and 6-sulphates	least anti-coagulant	> 50	effectiveness against RF ([7]; compared with dextran sulphate (MW 8,000)): more effective than dextran sulphate against RF
